In brackets after ≈: the same amount, converted by molar mass. *1 amine or outer side, *2 acyl side, *3 side chain or, on linkers, in order; H or OH if unused. Where a SMILES comes first, the peptide text is derived from it. Bridges are numbered along the chain shown (N, C = ends). [ ]: non-standard residue; d: D form. The star is where a group is joined. X1 = CC(C)=CCc1ccc(Cl)c2[nH]cc(CC(N[*:1])C(=O)[*:2])c12; Trp(7-Cl) = N[CH](Cc1c[nH]c2c(Cl)cccc12)C(=O)O; Malonyl = O=C(CC(=O)[*:2])[*:1]; Cya = N[CH](CS(=O)(=O)O)C(=O)O; dDab = NCC[C@@H](N)C(=O)O; Octanoyl = CCCCCCCC(=O)*; Orn = NCCC[C@H](N)C(=O)O; Dab = NCC[C@H](N)C(=O)O
Experiments:
[1] = tested on: Staphylococcus epidermidis; assay: Antibacterial activity against Staphylococcus epidermidis RP62A harboring wild-type SPase by CLSI microbroth dilution method; format: functional
Escherichia coli [2] = assay: Antibacterial activity against Escherichia coli PAS0232 harboring SPase P84S mutant by CLSI microbroth dilution assay; format: functional
Pseudomonas aeruginosa [3] = assay: Antibacterial activity against Pseudomonas aeruginosa PAS2006 harboring SPase P84S mutant by CLSI microbroth dilution assay; format: functional
[4] = tested on: Staphylococcus epidermidis; assay: Antibacterial activity against Staphylococcus epidermidis PAS9001 harboring SPase S29P mutant by CLSI microbroth dilution assay; format: functional
[5] = tested on: Staphylococcus epidermidis; assay: Antibacterial activity against Staphylococcus epidermidis PAS8001 harboring SPase P29S mutant by CLSI microbroth dilution method; format: functional
[6] = Selectivity ratio of MIC for Staphylococcus epidermidis PAS9001 harboring SPase S29P mutant to MIC for Staphylococcus epidermidis RP62A; format: functional
Pseudomonas aeruginosa [7] = assay: Antibacterial activity against Pseudomonas aeruginosa ATCC 27853 by microdilution method; format: functional
Staphylococcus aureus [8] = assay: Antibacterial activity against methicillin-resistant Staphylococcus aureus by CLSI broth dilution method; format: functional
Acinetobacter baumannii = assay: Antibacterial activity against Acinetobacter baumannii; format: functional
Pseudomonas aeruginosa [9] = assay: Antibacterial activity against Pseudomonas aeruginosa; format: functional
Staphylococcus aureus [10] = assay: Antibacterial activity against Staphylococcus aureus; format: functional
Escherichia coli [11] = assay: Antibacterial activity against wild-type Escherichia coli; format: functional
Escherichia coli [12] = assay: Antibacterial activity against tolC-deficit Escherichia coli measured after 16 hrs by serial dilution method; format: functional
Escherichia coli [13] = assay: Antibacterial activity against tolC-deficit Escherichia coli in presence of human serum albumin; format: functional
Escherichia coli [14] = assay: Antibacterial activity against Escherichia coli by agar dilution method; format: functional
Escherichia coli [15] = assay: Antibacterial activity against acrAB-efflux pump deficit Escherichia coli; format: functional
Pseudomonas aeruginosa [16] = assay: Antibacterial activity against Pseudomonas aeruginosa PAO1 measured after 16 to 20 hrs by microbroth dilution assay; format: functional
[17] = Inhibition of Escherichia coli LpxA after 15 mins by fluorescence polarization assay
[18] = Inhibition of Escherichia coli His6-tagged LpxD after 15 mins by fluorescence polarization assay
Pseudomonas aeruginosa [19] = assay: Potentiation of colistin-induced antibacterial activity against Pseudomonas aeruginosa PAO1 infected in BALB/c mouse assessed as log reduction in bacterial burden in lungs at 2.08 mg/kg, it measured after 6 hrs by serial dilution method; format: functional, Lung
[20] = Hemolytic activity against human RBC; format: ADME, cell-based; conditions: erythrocyte
Pseudomonas aeruginosa [21] = assay: Antibacterial activity against wild-type Pseudomonas aeruginosa measured after 16 hrs by serial dilution method; format: functional
Pseudomonas aeruginosa [22] = assay: Antibacterial activity against MexABCDXY-deficit Pseudomonas aeruginosa measured after 16 hrs by serial dilution method; format: functional
Escherichia coli [23] = assay: Antibacterial activity against wild-type Escherichia coli measured after 16 hrs by serial dilution method; format: functional
Escherichia coli [24] = assay: Antibacterial activity against Escherichia coli after 16 to 20 hrs by agar well diffusion method; format: functional

Molecule: CCCCCCCCCCCCCCCC(=O)N(C)[C@H](CO)C(=O)N[C@H](C)C(=O)NCC(=O)N(C)[C@@H]1C(=O)N[C@@H](C)C(=O)N[C@@H](C(=O)O)Cc2ccc(O)c(c2)-c2cc1ccc2O
- MIC [1]: 0.25 µg/mL (≈ 0.284 µM)
- MIC (Escherichia coli [2]): 4 µg/mL (≈ 4.54 µM)
- MIC (Pseudomonas aeruginosa [3]): 8 µg/mL (≈ 9.08 µM)
- MIC [4]: 8 µg/mL (≈ 9.08 µM)
- MIC [5]: 2 µg/mL (≈ 2.27 µM)
- Ratio [6]: 32

Molecule: CC[C@H](C)[C@@H]1NC(=O)[C@H](Cc2c[nH]c3ccccc23)NC(=O)[C@H]([C@@H](C)O)NC(=O)[C@@H]2CCCN2C(=O)[C@H]2CCCN2C(=O)[C@H](CO)NC(=O)[C@H](C)NC(=O)[C@H](CCN)NC(=O)[C@H](CCN)NC(=O)[C@H](Cc2c[nH]c3ccccc23)NC(=O)[C@H](CCN)NC(=O)[C@@H](CCN)NC(=O)[C@H](CCCN)NC(=O)[C@H](CCN)NC1=O [MUREPAVADIN] (cyclo(TWI[Dab][Orn][dDab][Dab]W[Dab][Dab]AS[dP]P))
- MIC (Pseudomonas aeruginosa [7]): 0.008 µg/mL (≈ 0.00515 µM)

Molecule: CCCC(C)/C=C(/C)C(=O)OC(CCCCCCC/C=C/C(=O)NCCC(=O)NC(CS(=O)(=O)O)C(=O)N(C)C1C(=O)NC(C)C(=O)NC(C(=O)O)Cc2ccc(OS(=O)(=O)O)c(c2)-c2cc1cc(OS(=O)(=O)O)c2OC1O[C@H](C)[C@@H](O)[C@H](O)[C@@H]1O)CCC(C)C (some centres not stated)
- MIC (Staphylococcus aureus [8]): 16 to 128 µg/mL (≈ 11.9 to 94.9 µM)

Molecule: CC[C@H](C)[C@@H]1NC(=O)[C@H](CCCNC(=N)N)NC(=O)[C@H](Cc2cc3ccccc3[nH]2)NC(=O)[C@@H]2CCCN2C(=O)[C@H]2CCCN2C(=O)[C@H](CCCNC(=N)N)NC(=O)[C@H](CCCNC(=N)N)NC(=O)[C@H](CC(C)C)NC(=O)[C@H](CCCNC(=N)N)NC(=O)[C@H](CCCCN)NC(=O)[C@H](Cc2c[nH]c3ccccc23)NC(=O)[C@@H](CCCNC(=N)N)NC(=O)[C@H]([C@@H](C)CC)NC(=O)[C@H](CCCNC(=N)N)NC1=O
- MIC (Acinetobacter baumannii): 1 µg/mL (≈ 0.507 µM)
- MIC (Pseudomonas aeruginosa [9]): 4 µg/mL (≈ 2.03 µM)
- MIC (Staphylococcus aureus [10]): 2 µg/mL (≈ 1.01 µM)
- MIC (Escherichia coli [11]): 0.25 µg/mL (≈ 0.127 µM)

Molecule: CC(C)(C)c1nc(-c2ccc3c(c2)OCCO3)c(-c2ccncc2)[nH]1
- MIC (Escherichia coli [12]): 0.25 µg/mL (≈ 0.745 µM)
- MIC (Escherichia coli [11]): 32 µg/mL (≈ 95.4 µM)
- MIC (Escherichia coli [13]): 4 µg/mL

Molecule: CC(C)=CCc1ccc(Cl)c2[nH]cc(CC3NC(=O)C(Cc4c[nH]c5c(Cl)cccc45)NC(=O)C4CCCN4C(=O)C(CS(=O)(=O)O)NC(=O)C(NC(=O)C(NC(=O)C(C)NC(=O)CC(=O)O)C(C)C)COC(=O)C(CO)NC(=O)C(CC(C)C)NC(=O)C(C(C)C)NC3=O)c12 (configuration not stated) (Malonyl-AVS[Cya]P[Trp(7-Cl)][X1]VLS; ester 3-C; configuration not given here)
- MIC (Staphylococcus aureus [8]): 0.5 to 128 µg/mL (≈ 0.357 to 91.4 µM)

Molecule: CCCCCCCCCC[C@H]1OC(=O)CNC(=O)[C@H]([C@@H](C)O)NC(=O)[C@H](CO)NC(=O)[C@H]([C@H](C)CC)NC(=O)[C@H](CC(C)C)N(C)C(=O)[C@@H]1C
- MIC (Escherichia coli [14]): 1.56 µg/mL (≈ 2.19 µM)

Molecule: CC(C)(N)[C@H](NC(=O)c1ccc(C#CC#C[C@@H]2C[C@H]2CO)cc1)C(=O)NO [ACHN-975]
- MIC (Pseudomonas aeruginosa [7]): 0.25 µg/mL (≈ 0.677 µM)

Molecule: Sc1ccccc1C1=NCCCN1
- MIC (Escherichia coli [11]): 16 µg/mL (≈ 83.2 µM)
- MIC (Escherichia coli [15]): 8 µg/mL (≈ 41.6 µM)

Molecule: CN(C)c1ccc(C2=NCCCN2)c(S)c1
- MIC (Escherichia coli [11]): 16 µg/mL (≈ 68 µM)
- MIC (Escherichia coli [15]): 8 µg/mL (≈ 34 µM)

Molecule: C[C@@H](O)[C@H](NC(=O)c1ccc(C#Cc2ccc(CN3CCOCC3)cc2)cc1)C(=O)NO
- MIC (Pseudomonas aeruginosa [16]): 1 µg/mL (≈ 2.29 µM)

Molecule: H-TNLYMLPKWDIP-NH2
- Kd [17]: 20 µM
- Kd [18]: 6 µM

Molecule: CC[C@H](C)[C@H](NC(=O)[C@@H](N)Cc1ccccc1)C(=O)N[C@@H](CCCNC(=N)N)C(=O)N[C@@H](CC(C)C)C(N)=O (H-FIRL-NH2)
- Activity (Pseudomonas aeruginosa [19]): 1 log10CFU/ml

Molecule: CC[C@H](C)[C@@H]1NC(=O)[C@H](Cc2c[nH]c3ccccc23)NC(=O)[C@H]([C@@H](C)O)NC(=O)[C@@H]2CCCN2C(=O)[C@H]2CCCN2C(=O)[C@H](CCN)NC(=O)[C@H](C)NC(=O)[C@H](CCN)NC(=O)[C@H](CCN)NC(=O)[C@H](Cc2c[nH]c3ccccc23)NC(=O)[C@H](CCN)NC(=O)[C@@H](CCN)NC(=O)[C@H](CCCCN)NC(=O)[C@H](CCN)NC1=O (cyclo(TWI[Dab]K[dDab][Dab]W[Dab][Dab]A[Dab][dP]P))
- Activity [20]: > 100 µg/mL

Molecule: N=C(N)SCc1ccc(Cl)c(Cl)c1
- MIC (Pseudomonas aeruginosa [21]): 4 µg/mL (≈ 17 µM)
- MIC (Pseudomonas aeruginosa [22]): 1 µg/mL (≈ 4.25 µM)
- MIC (Escherichia coli [23]): > 32 µg/mL
- MIC (Escherichia coli [12]): > 32 µg/mL

Molecule: Fc1ccc(COc2cccc(-c3n[nH]cc3-c3ccncc3)c2)cc1
- MIC (Escherichia coli [12]): < 0.063 µg/mL
- MIC (Escherichia coli [11]): 8 µg/mL (≈ 23.2 µM)
- MIC (Escherichia coli [13]): 16 µg/mL

Molecule: CCC[C@@H]1OC(=O)[C@@H](C)C[C@H](C)CCCCC(=O)CCC[C@@H](CC)CC/C=C(\COC)CC[C@@H](O)[C@@H](O)C[C@H](O)CNC1=O
- MIC (Escherichia coli [14]): 3.12 µg/mL (≈ 4.98 µM)

Molecule: CCCCCCCC(=O)N[C@H](C(=O)N[C@@H](CO)C(=O)N[C@H]1CCNC(=O)[C@H]([C@@H](C)O)NC(=O)[C@H](CCN)NC(=O)[C@H](CCN)NC(=O)[C@H](CC(C)C)NC(=O)[C@@H](Cc2ccccc2)NC(=O)[C@H](CCN)NC1=O)[C@@H](C)O (Octanoyl-TS[Dab][Dab][dF]L[Dab][Dab]T; lactam 3-C)
- MIC90 (Escherichia coli [24]): 1 µg/mL (≈ 0.929 µM)

Molecule: CCC[C@@H]1OC(=O)[C@@H](C)C[C@H](C)CCCCC(=O)CCC[C@@H](CC)/C=C/C=C(\COC)CC[C@@H](O)[C@@H](O)C[C@H](O)CNC1=O
- MIC (Escherichia coli [14]): 6.25 µg/mL (≈ 10 µM)

From ChEMBL document CHEMBL3864123, “Drug discovery strategies to outer membrane targets in Gram-negative pathogens” (Bioorg Med Chem, 2016)
